Measured values taken from patent US10550143B2, “C,O-spiro aryl glycoside compounds, preparation therefor and use thereof” (SHANGHAI INSTITUTE OF MATERIA MEDICA, CHINESE ACADEMY OF …, priority 2015, dated 2020).

What was measured:
db/db mice = experiment: Chronic administration, glucose-stimulated insulin release in db/db mice; format: in vivo, mouse; details: glucose-stimulated insulin release, chronic administration, dose 10 mg/kg
Description: Oral gavage administrated, daily dose volume was 10 mL/kg, administered once daily. Administration time was 9: 00-10:00 daily, and the administration period was 5 weeks.
The fourth week after administration, the mice were starved for 6 hours after morning administration and were orally administrated with glucose (1.5 g/kg), and blood was collected from the tail (10 μL EDTA+20 μL tail blood). Centrifuged and the supernatant was taken, stored at −20° C. for insulin test.

SD rats = experiment: Acute administration of A28 at multiple doses, urinary glucose of SD rats; format: in vivo, rat; details: within 24 h
Description: (1) 72 normal male SD rats were selected and randomly divided into 9 groups according to body weight and blood glucose, 8 in each group. […] After oral gavage, the rats were placed in rats metabolic cages, and urine was collected after 24 h, and the urine volume was recorded, then preserved under −20° C. Rats take food and water freely during the experimental period.
(§1) (2) Index Determination: Glucose levels in urine are measured by the glucose assay kit.

C57BL/6J mice [1] = experiment: Acute administration of A28 at multiple doses, urinary glucose of C57BL/6J mice; format: in vivo, mouse; details: for Total sugar excretion / Urine concentration / Urine volume: 24 h urine
Description: (1) 90 normal male C57BL/6J mice were selected and randomly divided into 9 groups according to body weight and blood glucose, 10 in each group. […] After oral gavage, the mice were placed in rats (mice) metabolic cages, […] and urine was collected after 24 h, and the urine volume was recorded, then preserved under −20° C. Rats take food and water freely during the experimental period.
as §1

C57BL/6J mice [2] = experiment: Acute administration of A28 at multiple doses, oral glucose tolerance of C57BL/6J mice; format: in vivo, mouse; details: for AUC0-2 h / Average hypoglycemic rate % (0-2 h) / Blood glucose level 15 min / Blood glucose level 30 min / Blood glucose level 60 min / Blood glucose level 90 min / Blood glucose level 120 min / Blood glucose level 0: C57BL/6J mice OGTT; for Blood glucose level 0: before sugar
Description: (1) Experimental Methods: 56 C57BL/6J mice were selected and starved for 6 h, took water freely, then randomly divided into 7 groups according to body weight and random blood glucose, 8 rats in each group. […] Average hypoglycemic rate %=(AUC0-120 min of solvent control group−AUC0-120 min of administration group)/(AUC0-120 min of solvent control group−AUC0-120 min of blank control group)*100%

CCc1ccc(Cc2cc3c(cc2Cl)CO[C@]32O[C@H](C)[C@@H](O)[C@H](O)[C@H]2O)s1 [Example A28, (1S,3′R,4′S,5′S,6′R)-6′-methyl-6-((5-ethylthienyl)-2-methyl)-5-chloro-3′,4′,5′,6′-tetrahydro-3H-spiro[isobenzofuran-1,2′-pyran]-3′,4′,5′-triol]
Insulin (ng/ml) 30 min (db/db mice; 30 min): 13.42 ± 1.94 ng/mL | Insulin (ng/ml) 60 min (db/db mice; 60 min): 27.45 ± 4.43 ng/mL | Insulin (ng/ml) pre (db/db mice; pre): 7.45 ± 1.00 ng/mL | Total sugar excretion (SD rats; oral 0.3 mg/kg): 10.55 ± 10.05 mg/100 g | Urine concentration (SD rats; oral 0.3 mg/kg): 8.70 ± 1.98 mmol/L | Urine volume (SD rats; oral 0.3 mg/kg): 16.25 ± 1.50 mL | Total sugar excretion (SD rats; oral 1 mg/kg): 149.08 ± 0.00 mg/100 g | Urine concentration (SD rats; oral 1 mg/kg): 105.56 ± 0.00 mmol/L | Urine volume (SD rats; oral 1 mg/kg): 19.25 ± 0.00 mL | Total sugar excretion (SD rats; oral 3 mg/kg): 441.27 ± 50.75 mg/100 g | Urine concentration (SD rats; oral 3 mg/kg): 257.69 ± 32.96 mmol/L | Urine volume (SD rats; oral 3 mg/kg): 25.00 ± 2.06 mL | Total sugar excretion (SD rats; oral 10 mg/kg): 1028.20 ± 83.93 mg/100 g | Urine concentration (SD rats; oral 10 mg/kg): 359.48 ± 29.43 mmol/L | Urine volume (SD rats; oral 10 mg/kg): 39.75 ± 1.57 mL | urine glucose excretion (SD rats; single oral 0.3, 1, 3 and 10 mg/kg): significantly promoted in a dose-dependent manner | urinary exclusion effect compared with Dapagliflozin (C57BL/6J mice [1]; at the same dose): equal to or stronger than positive control Dapagliflozin | Total sugar excretion (C57BL/6J mice [1]; oral 0.3 mg/kg): 10.31 ± 3.26 mg/100 g | Urine concentration (C57BL/6J mice [1]; oral 0.3 mg/kg): 7.91 ± 2.50 mmol/L | Urine volume (C57BL/6J mice [1]; oral 0.3 mg/kg): 2.1 ± 0.7 mL | Total sugar excretion (C57BL/6J mice [1]; oral 1 mg/kg): 175.49 ± 55.53 mg/100 g | Urine concentration (C57BL/6J mice [1]; oral 1 mg/kg): 133.28 ± 42.18 mmol/L | Urine volume (C57BL/6J mice [1]; oral 1 mg/kg): 1.8 ± 0.6 mL | Total sugar excretion (C57BL/6J mice [1]; oral 3 mg/kg): 440.02 ± 139.25 mg/100 g | Urine concentration (C57BL/6J mice [1]; oral 3 mg/kg): 265.71 ± 84.09 mmol/L | Urine volume (C57BL/6J mice [1]; oral 3 mg/kg): 2.1 ± 0.7 mL | Total sugar excretion (C57BL/6J mice [1]; oral 10 mg/kg): 712.00 ± 225.32 mg/100 g | Urine concentration (C57BL/6J mice [1]; oral 10 mg/kg): 344.07 ± 108.88 mmol/L | Urine volume (C57BL/6J mice [1]; oral 10 mg/kg): 2.5 ± 0.8 mL | effective dose, urine glucose excretion (C57BL/6J mice [1]; single oral, within 24 hours): ≤ 0.3 mg/kg | AUC0-2 h (C57BL/6J mice [2]; oral 0.3 mg/kg): 21.6 ± 1.5 mmol·h/L | Average hypoglycemic rate % (0-2 h) (C57BL/6J mice [2]; oral 0.3 mg/kg): 2.0% | Blood glucose level 15 min (C57BL/6J mice [2]; oral 0.3 mg/kg): 14.2 ± 2.1 mmol/L | Blood glucose level 30 min (C57BL/6J mice [2]; oral 0.3 mg/kg): 13.0 ± 1.7 mmol/L | Blood glucose level 60 min (C57BL/6J mice [2]; oral 0.3 mg/kg): 11.2 ± 0.8 mmol/L | Blood glucose level 90 min (C57BL/6J mice [2]; oral 0.3 mg/kg): 9.1 ± 1.0 mmol/L | Blood glucose level 120 min (C57BL/6J mice [2]; oral 0.3 mg/kg): 8.3 ± 1.0 mmol/L | Blood glucose level 0 (C57BL/6J mice [2]; oral 0.3 mg/kg): 7.5 ± 0.4 mmol/L | AUC0-2 h (C57BL/6J mice [2]; oral 1 mg/kg): 19.8 ± 1.0 mmol·h/L | Average hypoglycemic rate % (0-2 h) (C57BL/6J mice [2]; oral 1 mg/kg): 10.0% | Blood glucose level 15 min (C57BL/6J mice [2]; oral 1 mg/kg): 12.5 ± 1.6 mmol/L | Blood glucose level 30 min (C57BL/6J mice [2]; oral 1 mg/kg): 12.0 ± 0.8 mmol/L | Blood glucose level 60 min (C57BL/6J mice [2]; oral 1 mg/kg): 9.9 ± 0.9 mmol/L | Blood glucose level 90 min (C57BL/6J mice [2]; oral 1 mg/kg): 8.7 ± 0.7 mmol/L | Blood glucose level 120 min (C57BL/6J mice [2]; oral 1 mg/kg): 7.9 ± 0.7 mmol/L | Blood glucose level 0 (C57BL/6J mice [2]; oral 1 mg/kg): 7.1 ± 0.6 mmol/L | AUC0-2 h (C57BL/6J mice [2]; oral 3 mg/kg): 18.5 ± 0.6 mmol·h/L | Average hypoglycemic rate % (0-2 h) (C57BL/6J mice [2]; oral 3 mg/kg): 16.2% | Blood glucose level 15 min (C57BL/6J mice [2]; oral 3 mg/kg): 10.4 ± 1.0 mmol/L | Blood glucose level 30 min (C57BL/6J mice [2]; oral 3 mg/kg): 11.3 ± 1.1 mmol/L | Blood glucose level 60 min (C57BL/6J mice [2]; oral 3 mg/kg): 9.5 ± 0.7 mmol/L | Blood glucose level 90 min (C57BL/6J mice [2]; oral 3 mg/kg): 8.4 ± 0.7 mmol/L | Blood glucose level 120 min (C57BL/6J mice [2]; oral 3 mg/kg): 7.4 ± 0.6 mmol/L | Blood glucose level 0 (C57BL/6J mice [2]; oral 3 mg/kg): 6.4 ± 0.7 mmol/L | effective dose, reduction of blood glucose AUC within 2 h after sugar (C57BL/6J mice [2]; C57BL/6J mice, once administrated): 1 mg/kg
